Source: ChEMBL document CHEMBL5543109, “Novel β-Hairpin Antimicrobial Peptide Containing the β-Turn Sequence of -NG- and the Tryptophan Zippers Facilitate Self-Assembly into Nanofibers, Exhibiting Excellent Antimicrobial Performance” (J Med Chem, 2024)
Converted amounts (≈) assume the structure as drawn. The source made the active and inactive calls. The rule behind the calls is not given here.

Tests used:
Pseudomonas aeruginosa [1] = test: Induction of morphological change in Pseudomonas aeruginosa assessed as bacterial deformation at 2 times MIC incubated for 30 mins by SEM analysis; format: functional, organism-based
Staphylococcus aureus [2] = test: Antibacterial activity against Staphylococcus aureus 794 infected in BALB/c mouse skin wound infection model assessed as reduction in wound bacterial load at 1 mg/ml, ip administered at 1 hr interval for total 6 treatment and measured after 1 hr post last dose; format: functional, organism-based; conditions: time 7.0 hrs
Staphylococcus aureus [3] = test: Antibacterial activity against methicillin resistant Staphylococcus aureus incubated for 18 hrs by broth microdilution method; format: functional
Staphylococcus aureus [4] = test: Additive antibacterial activity against Staphylococcus aureus 794 assessed as fractional inhibitory concentration index incubated for 18 hrs in presence of kanamycin by checkerboard assay; format: functional
Cell membrane [5] = test: Induction of cell membrane disruption in Staphylococcus aureus assessed as PI uptake at 2 times MIC incubated for 2 hrs by PI staining based flow cytometry analysis (reference value: 15.9%); format: cell membranes
Cell membrane [6] = test: Induction of cell membrane disruption in Staphylococcus aureus assessed as PI uptake at 4 times MIC incubated for 2 hrs by PI staining based flow cytometry analysis (reference value: 15.9%); format: cell membranes
Escherichia coli [7] = test: Antibacterial activity against Escherichia coli infected in BALB/c mouse systemic infection model assessed as reduction in spleen bacterial load at 5 mg/kg, ip measured after 24 hrs; format: functional, organism-based
Escherichia coli [8] = test: Synergistic antibacterial activity against kanamycin resistant Escherichia coli assessed as fractional inhibitory concentration index incubated for 18 hrs in presence of cefotaxime by checkerboard assay; format: functional
Escherichia coli [9] = test: Bactericidal activity against Escherichia coli ATCC 25922 incubated for 18 hrs by broth microdilution method; format: functional
Cell membrane [10] = test: Induction of inner membrane permeabilization in Escherichia coli ML-35 […] measured every 5 mins for 120 mins by ONPG dye based assay; format: cell membranes
Pseudomonas aeruginosa [11] = test: Additive antibacterial activity against Pseudomonas aeruginosa assessed as fractional inhibitory concentration index incubated for 18 hrs in presence of rifampin by checkerboard assay; format: functional
Cell membrane [12] = test: Induction of inner membrane permeabilization in Escherichia coli ML-35 at 1 to 4 times MIC measured every 5 mins for 120 mins by ONPG dye based assay; format: cell membranes
Pseudomonas aeruginosa [13] = test: Antibacterial activity against Pseudomonas aeruginosa assessed as fractional inhibitory concentration index incubated for 18 hrs in presence of cefotaxime by checkerboard assay; format: functional
[14] = Toxicity in BALB/c mouse infected with Staphylococcus aureus 794 assessed as epidermal layer thickness at 1 mg/ml, ip pre-infected with bacteria for 24 hrs followed by compound addition and measured after 13 days by H and E staining based histopathological analysis; format: organism-based; conditions: in vivo, 312 h, time 13 day
Pseudomonas aeruginosa [15] = test: Antibacterial activity against Pseudomonas aeruginosa incubated for 18 hrs in presence of MgCl2 by broth microdilution method; format: functional, organism-based
[16] = Self-assembly property of compound in PBS assessed as beta-sheet formation by measuring particle size at 50 uM by […]; format: physicochemical; conditions: buffer
Staphylococcus aureus [17] = test: Antibacterial activity against Staphylococcus aureus ATCC 25923 infected in BALB/c mouse skin wound infection model assessed as reduction in wound bacterial load at 1 mg/ml, ip administered at 1 hr interval for total 6 treatment and measured after 1 hr post last dose; format: functional, organism-based; conditions: time 7.0 hrs
Staphylococcus aureus [18] = test: Additive antibacterial activity against methicillin resistant Staphylococcus aureus assessed as fractional inhibitory concentration index incubated for 18 hrs in presence of gentamycin by checkerboard assay; format: functional
Staphylococcus aureus [19] = test: Antibacterial activity against Staphylococcus aureus incubated for 18 hrs in presence of ZnCl2 by broth microdilution method; format: functional, organism-based
Escherichia coli [20] = test: Antibacterial activity against kanamycin resistant Escherichia coli assessed as fractional inhibitory concentration index incubated for 18 hrs in presence of kanamycin by checkerboard assay; format: functional
Staphylococcus aureus [21] = test: Additive antibacterial activity against methicillin resistant Staphylococcus aureus 75 assessed as fractional inhibitory concentration index incubated for 18 hrs in presence of gentamycin by checkerboard assay; format: functional
Bacillus subtilis = test: Bactericidal activity against Bacillus subtilis ATCC 23857 incubated for 18 hrs by broth microdilution method; format: functional
Staphylococcus aureus [22] = test: Antibacterial activity against Staphylococcus aureus incubated for 18 hrs in presence of NH4Cl by broth microdilution method; format: functional, organism-based
Staphylococcus aureus [23] = test: Synergistic antibacterial activity against methicillin resistant Staphylococcus aureus 75 assessed as fractional inhibitory concentration index incubated for 18 hrs in presence of cefotaxime by checkerboard assay; format: functional
Escherichia coli [24] = test: Antibacterial activity against Escherichia coli infected in BALB/c mouse systemic infection model assessed as reduction in lung bacterial load at 5 to 10 mg/kg, ip measured after 24 hrs; format: functional, organism-based; conditions: dose 5-10 mg/kg
Cell membrane [25] = test: Induction of cell membrane disruption in Escherichia coli assessed as PI uptake at 2 times MIC incubated for 2 hrs by PI staining based flow cytometry analysis (reference value: 11.9%); format: cell membranes
Escherichia coli [26] = test: Antibacterial activity against Escherichia coli infected in BALB/c mouse systemic infection model assessed as reduction in liver bacterial load at 5 to 10 mg/kg, ip measured after 24 hrs; format: functional, organism-based; conditions: dose 5-10 mg/kg
Escherichia coli [27] = test: Antibacterial activity against rifampicin resistant Escherichia coli incubated for 18 hrs by broth microdilution method; format: functional
Klebsiella pneumoniae [28] = test: Bactericidal activity against Klebsiella pneumoniae ATCC 700603 incubated for 18 hrs by broth microdilution method; format: functional
Pseudomonas aeruginosa [29] = test: Drug resistance against Pseudomonas aeruginosa assessed as fold increase in MIC after 40 consecutive days of passages by sequential passaging method; format: functional; conditions: time 18 hrs
Klebsiella pneumoniae [30] = test: Additive antibacterial activity against Klebsiella pneumoniae assessed as fractional inhibitory concentration index incubated for 18 hrs in presence of kanamycin by checkerboard assay; format: functional
Staphylococcus aureus [31] = test: Synergistic antibacterial activity against Staphylococcus aureus 794 assessed as fractional inhibitory concentration index incubated for 18 hrs in presence of cefotaxime by checkerboard assay; format: functional
[32] = Self-assembly property of compound in PBS assessed as beta-sheet protofibrils formation at 128 uM incubated for 30 mins by SEM analysis; format: physicochemical; conditions: buffer, 0.5 h
Staphylococcus aureus [33] = test: Antibacterial activity against Staphylococcus aureus 794 infected in BALB/c mouse skin wound infection model assessed as reduction in TNFalpha level at 1 mg/ml, ip pre-infected with bacteria for 24 hrs followed by compound addition and measured after 13 days post infection; format: functional, organism-based; conditions: time 12.0 day
[34] = Retention time of the compound; format: physicochemical
Pseudomonas aeruginosa [35] = test: Antibacterial activity against Pseudomonas aeruginosa ATCC 27853 incubated for 18 hrs by broth microdilution method; format: functional
Staphylococcus aureus [36] = test: Antibacterial activity against Staphylococcus aureus 794 infected in BALB/c mouse skin wound infection model assessed as wound healing at 1 mg/ml, ip pre-infected with bacteria for 24 hrs followed by compound addition and measured on day 4; format: functional, organism-based; conditions: time 4.0 day
Staphylococcus aureus [37] = test: Antibacterial activity against Staphylococcus aureus S794 incubated for 18 hrs by broth microdilution method; format: functional
[38] = system: Staphylococcus epidermidis; test: Bactericidal activity against Staphylococcus epidermidis ATCC 12228 incubated for 18 hrs by broth microdilution method; format: functional
Staphylococcus aureus [39] = test: Antibacterial activity against Staphylococcus aureus 794 infected in BALB/c mouse skin wound infection model assessed as reduction in wound area at 1 mg/ml, ip pre-infected with bacteria for 24 hrs followed by compound addition and measured on day 9 to 13; format: functional, organism-based; conditions: time 9-13 day
Klebsiella pneumoniae [40] = test: Synergistic antibacterial activity against Klebsiella pneumoniae assessed as fractional inhibitory concentration index incubated for 18 hrs in presence of rifampin by checkerboard assay; format: functional

## NCCCC[C@@H](NC(=O)[C@H](N)Cc1c[nH]c2ccccc12)C(=O)N[C@H](Cc1c[nH]c2ccccc12)C(=O)N[C@H](CCCCN)C(=O)N[C@H](Cc1c[nH]c2ccccc12)C(=O)N[C@@H](CC(N)=O)C(=O)NCC(=O)N[C@H](Cc1c[nH]c2ccccc12)C(=O)N[C@H](CCCCN)C(=O)N[C@H](Cc1c[nH]c2ccccc12)C(=O)N[C@H](CCCCN)C(=O)N[C@H](Cc1c[nH]c2ccccc12)C(N)=O
Pseudomonas aeruginosa [1]
  Activity: Active
Staphylococcus aureus [2]
  Activity: Active
Staphylococcus aureus [3]
  MIC: 8 µM (≈ 14.5 µg/mL)
Staphylococcus aureus [4]
  fractional inhibitory concentration index (FICI): 0.563
Cell membrane [5]
  Activity: 96.6%
Cell membrane [6]
  Activity: 95.5%
Escherichia coli [7]
  Activity: Active
Escherichia coli [8]
  fractional inhibitory concentration index (FICI): 0.375
Escherichia coli [9]
  MBC: 8 µM (≈ 14.5 µg/mL)
Cell membrane [10]
  Activity: Dose-Dependent Effect
Pseudomonas aeruginosa [11]
  fractional inhibitory concentration index (FICI): 0.563
Cell membrane [12]
  Activity: Active
Pseudomonas aeruginosa [13]
  fractional inhibitory concentration index (FICI): 1.063
[14]
  Activity: Non-Toxic
Pseudomonas aeruginosa [15]
  Activity: Active
[16]
  Activity: 874.9 nm
Staphylococcus aureus [17]
  Activity: Active
Staphylococcus aureus [18]
  fractional inhibitory concentration index (FICI): 0.75
Staphylococcus aureus [19]
  Activity: Active
Escherichia coli [20]
  fractional inhibitory concentration index (FICI): 0.188
Staphylococcus aureus [21]
  fractional inhibitory concentration index (FICI): 0.625
Bacillus subtilis
  MBC: 4 µM (≈ 7.27 µg/mL)
Staphylococcus aureus [22]
  Activity: Active
Staphylococcus aureus [23]
  fractional inhibitory concentration index (FICI): 0.375
Escherichia coli [24]
  Activity: Active
Cell membrane [25]
  Activity: 86.2%
Escherichia coli [26]
  Activity: Active
Escherichia coli [27]
  MIC: 8 µM (≈ 14.5 µg/mL)
Klebsiella pneumoniae [28]
  MBC: 8 µM (≈ 14.5 µg/mL)
Pseudomonas aeruginosa [29]
  fold change (FC): 4
Klebsiella pneumoniae [30]
  fractional inhibitory concentration index (FICI): 0.563
Staphylococcus aureus [31]
  fractional inhibitory concentration index (FICI): 0.313
[32]
  Activity: Active
Staphylococcus aureus [33]
  Activity: Active
[34]
  Retention_time: 14.321 min
Pseudomonas aeruginosa [35]
  MIC: 4 µM (≈ 7.27 µg/mL)
Staphylococcus aureus [36]
  Activity: inactive
Staphylococcus aureus [37]
  MIC: 8 µM (≈ 14.5 µg/mL)
[38]
  MBC: 4 µM (≈ 7.27 µg/mL)
Staphylococcus aureus [39]
  Activity: Active
Klebsiella pneumoniae [40]
  fractional inhibitory concentration index (FICI): 0.5
